Test results taken from ChEMBL document CHEMBL1921728, “β-PNA: peptide nucleic acid (PNA) with a chiral center at the β-position of the PNA backbone” (Bioorg Med Chem Lett, 2011).

Legend:
[1] = Solubility of the compound in water; type: physicochemical
[2] = system: Nucleic Acid; test: Binding affinity to 5'-AGTGATCTAC-3' DNA assessed as melting temperature at 5 uM at pH 7.4 by thermal denaturation assay; type: nucleic-acid assay

solubility [1] [µM] | Tm [2] [°C] | SMILES
> 500 | – | Cc1cn(CC(=O)N(CC(=O)NCCN(CC(=O)NCCN(CC(=O)NCCN(CC(=O)NC[C@@H](C)N(CC(=O)N[C@H](CCCCN)C(N)=O)C(=O)Cn2cc(C)c(=O)[nH]c2=O)C(=O)Cn2ccc(N)nc2=O)C(=O)Cn2cnc3c(N)ncnc32)C(=O)Cn2ccc(N)nc2=O)[C@H](C)CNC(=O)CN(CCNC(=O)CN(CCNC(=O)CN(CCNC(=O)CN(C(=O)Cn2cc(C)c(=O)[nH]c2=O)[C@H](C)CNC(=O)CN(CCN)C(=O)Cn2cnc3c(=O)[nH]c(N)nc32)C(=O)Cn2cnc3c(N)ncnc32)C(=O)Cn2cnc3c(=O)[nH]c(N)nc32)C(=O)Cn2cnc3c(N)ncnc32)c(=O)[nH]c1=O
> 500 | 51.4 | Cc1cn(CC(=O)N(CCNC(=O)CN(CCNC(=O)CN(CCNC(=O)CN(CCNC(=O)CN(CCNC(=O)CN(CCN)C(=O)Cn2cnc3c(=O)[nH]c(N)nc32)C(=O)Cn2cc(C)c(=O)[nH]c2=O)C(=O)Cn2cnc3c(N)ncnc32)C(=O)Cn2cnc3c(=O)[nH]c(N)nc32)C(=O)Cn2cnc3c(N)ncnc32)CC(=O)NCCN(CC(=O)NCCN(CC(=O)NCCN(CC(=O)NCCN(CC(=O)N[C@@H](CCCCN)C(N)=O)C(=O)Cn2cc(C)c(=O)[nH]c2=O)C(=O)Cn2ccc(N)nc2=O)C(=O)Cn2cnc3c(N)ncnc32)C(=O)Cn2ccc(N)nc2=O)c(=O)[nH]c1=O
> 500 | 51 | Cc1cn(CC(=O)N(CC(=O)NCCN(CC(=O)NCCN(CC(=O)NCCN(CC(=O)NC[C@H](C)N(CC(=O)N[C@@H](CCCCN)C(N)=O)C(=O)Cn2cc(C)c(=O)[nH]c2=O)C(=O)Cn2ccc(N)nc2=O)C(=O)Cn2cnc3c(N)ncnc32)C(=O)Cn2ccc(N)nc2=O)[C@@H](C)CNC(=O)CN(CCNC(=O)CN(CCNC(=O)CN(CCNC(=O)CN(C(=O)Cn2cc(C)c(=O)[nH]c2=O)[C@@H](C)CNC(=O)CN(CCN)C(=O)Cn2cnc3c(=O)[nH]c(N)nc32)C(=O)Cn2cnc3c(N)ncnc32)C(=O)Cn2cnc3c(=O)[nH]c(N)nc32)C(=O)Cn2cnc3c(N)ncnc32)c(=O)[nH]c1=O
